pIC50: −log10 of the molar value. Entries after “also recorded” stand apart in the source; their conditions may differ. Read-outs that look alike come from different tables or passages of the source.

The values below come from patent publication US20230158032A1, “PHARMACEUTICAL COMBINATION FOR THE TREATMENT OF MYELOPROLIFERATIVE NEOPLASMS” (Universitätsklinikum Jena, priority 2020, published 2023).

Holding throughout (type): cell-based
The test system of assay [1] is murine Jak2 V617F cells. Kind of assay: MTS growth and proliferation assay of splicing factor inhibitors with and without Ruxolitinib. The settings on record: for pIC50: read-out: IC50, concentration of functional inhibitor needed to inhibit cell growth of 50%; for effect between the functional inhibitor and Ruxolitinib on cell growth inhibition: combination with Ruxolitinib (0.5 μM). As to the method: Growth and proliferation was measured by MTS assay. Data shown are representative of 2 independent experiments with 8 technical replicates, mean±SD. The used splicing factor inhibitors are: a) GSK3326595, a Prmt5 inhibitor; b) Indisulam, a Rbm39 inhibitor; c) Herboxidiene; d) Pladienolide B.
The plates were read at 490 nm in Tecan Infinite M200 and the responses were analyzed using Graph Pad Prism.
After 72 hours, the incubation was stopped and growth measured by MTS assay.

Assay [2] deals with Ybx1 pS30 and pS34. Kind of assay: Drug-perturbed phosphoproteome profiling of Ybx1 phosphosites. The settings on record: 10 μM for 1 hour, murine Jak2V617F BaF3. From the text: The size and colour of the dots are proportional to the phosphosite intensity, Z-scored (log 2 intensity).
The cells were lysed in Gmdcl buffer and processed as mentioned in the phospho-proteome sample preparation protocol.

The test system of assay [3] is primary human Jak2-mutated cells. The experiment in a line: Phosphoproteome of primary patient samples after Jak-i exposure. The settings on record: in vitro and in vivo exposure, 2 hours.
Description: In brief, peripheral blood samples from patients with Jak2 mutated myeloproliferative neoplasms were collected, granulocytes isolated, and treated with DMSO or Ruxolitinb 0.5 μM for 2 hours (either in vitro or in vivo). Cells were lysed and processed in 4% SDC buffer (4% SDC, 100 mM Tris pH8.5, 10 mM TCEP and 40 mM CAA), heated for 5 mins at 95° C. and cooled on ice for 15 min. Lysed samples were sonicated, heated again for 5 mins and BCA quantified. Approximately 350 μg of proteins were digested with LysC and Trypsin overnight at room temperature and phosphopeptides were enriched by TiO2 beads as described elsewhere.
[4] abbreviates: Mus musculus, 72 h, in the presence of Ruxolitinib (0.5 μM), 72 hours, MTS.
The mark [5] stands for this setting: functional inhibitor alone, 72 hours, MTS.
The mark [6] stands for this setting: in the presence of Ruxolitinib (0.5 μM), 72 hours, MTS.

`CC(=O)N1CCC(Nc2cc(C(=O)NC[C@H](O)CN3CCc4ccccc4C3)ncn2)CC1` [GSK3326595]: the pIC50 in assay [1] (Mus musculus, 72 h, functional inhibitor alone, 72 hours, MTS) was 6.00; in assay [1] (setting [4]), 8.40. The “effect between the functional inhibitor and Ruxolitinib on cell growth inhibition” value in assay [1] was “synergistic effect”.

Consider `CO[C@H]([C@@H](C)[C@H]1O[C@]1(C)C[C@H](C)/C=C/C=C(\C)[C@H]1O[C@@H](CC(=O)O)CC[C@@H]1C)[C@@H](C)O` [Herboxidiene], for which, in assay [1], the “effect between the functional inhibitor and Ruxolitinib on cell growth inhibition” value is given as “synergistic effect”. Further, the figures for the pIC50 in assay [1] (setting [5]) and in assay [1] (setting [6]) were about 7.80 and about 8.10, respectively.

For `NS(=O)(=O)c1ccc(S(=O)(=O)Nc2cccc3c(Cl)c[nH]c23)cc1` [Indisulam], the pIC50 in assay [1] (setting [4]) is 6.30. For the same compound, the “effect between the functional inhibitor and Ruxolitinib on cell growth inhibition” value in assay [1] was “synergistic effect”. The “50% inhibition of cell growth reached or not” value in assay [1] (setting [5]) was “not able to reach a 50% inhibition of cell growth”.

Turning to `O=C(NOC[C@H](O)CO)c1ccc(F)c(F)c1Nc1ccc(I)cc1F` [PD0325901], in assay [2], the “Ybx1 phosphorylation at pS30 and pS34” value was “responsive; also recorded: able to inhibit”.

As for `N#CC[C@H](C1CCCC1)n1cc(-c2ncnc3[nH]ccc23)cn1` [Ruxolitinib], in assay [3], the phosphosites significantly altered is on record as 618 phosphosites.

In the case of Pladienolide B, the “effect between the functional inhibitor and Ruxolitinib on cell growth inhibition” value in assay [1] is recorded as “synergistic effect”. Further, the pIC50 in assay [1] (setting [5]) was about 7.82; in assay [1] (setting [6]) it was about 8.15.
